Results as given in patent publication US20250281462A1, “THERAPEUTICALLY EFFECTIVE ORAL ADMINISTRATION OF A 2 ARYLBENZIMIDAZOLE” (Tranquis Therapeutics, Inc., priority 2021, published 2025).
“Also recorded” adds a separate entry of the source.

Tests used:
[1] = test system: PGC-1α; assay: PGC-1α protein expression in BV2 cells (Western blot); format: cell-based, murine; conditions: 20 μM, 24 hours
Description: Frozen BV2 murine microglia cells were thawed and propagated in complete media (RPMI, 10% heat-inactivated FBS, 1% L-glutamine, 1% Pen-Strep) until the growth rate reached log phase. For protein expression analysis, DMSO (1:1000 final dilution) or TQS-168 in DMSO (1:1000 final dilution) at 20 μM was added to cell cultures. After 24 hours stimulation, supernatant was discarded and cell lysis buffer (Cell Signal) was added to adherent cells to extract protein. Total protein was quantified and normalized across all samples by BCA assays. Two replicates of untreated cultures and three replicates of TQS-168-treated cultures were investigated, with each replicate containing lysates from 5,000,000 BV2 myeloid cells. PGC1α expression was detected by Western Blot using an anti-PGC-1α antibody (SC13067, Santa Cruz Biotechnology, 1:500 dilution). Anti-[…] antibody (SC8432, Santa Cruz Biotechnology, 1:2000 dilution) was used to quantify beta-actin, a housekeeping gene whose expression level is not known to be affected by TQS-168. […] Total protein was quantified and normalized across all samples by BCA assays. PGC-1α was subsequently detected by Western Blot using an anti-PGC-1α antibody (SC13067, Santa Cruz Biotechnology, 1:500 dilution). β-actin was detected with an anti-β-actin antibody (SC8432, Santa Cruz Biotechnology, 1:2000 dilution). […]

[2] = test system: TNFα; assay: LPS-induced TNFα secretion from BV2 cells (CBA assay); format: cell-based, murine; conditions: for suppression of TNFα production vs control: 100 ng/mL LPS 24 hours
Description: Lipopolysaccharide (LPS) is a natural ligand of the TLR4/CD14 complex, which is highly expressed on myeloid cells
LPS was used to induce cytokine secretion from BV-2 cells. Cells were incubated with TQS-168 at various concentrations to assess whether TQS-168 could suppress the LPS-promoted release of various cytokines from in vitro cell cultures. Cytokine secretion was measured by cytometric bead array (CBA) fluorescence-activated cell sorting (FACS).
Briefly, a vial of BV2 frozen stock (1 million cells per ml in complete medium) was thawed into 10 mL of complete medium per vial for a total of 4 vials. The vials were then centrifuged at 1800 rpm for 3 minutes to wash away freezing media. The four vials were then pooled into 25 mL of complete medium. TQS-168 was prepared in DMSO.
Cells were incubated for 24 hours in the presence of medium (negative control), LPS (positive control), DMSO+LPS (positive control, controlling additionally for presence of DMSO in the TQS-168 stock solution), or LPS+TQS-168 at final concentrations of 1 μM, 5 μM, 10 μM, and 20 μM.
After the well plates were incubated overnight for 24 hours, they were centrifuged at 1800 rpm for 5 minutes. Next, 150 μl from each well was transferred to a new set of plates, of which 50 μl was used for CBA. The plates were then centrifuged with the cells, followed by addition of 100 μL of DAPI (50 ml of PBS+10 μL of DAPI stock at 1:5000 dilution). The plates were then incubated in the dark for 5 minutes, followed by addition of 100 μL of PBS and centrifuged at 1800 rpm for 5 minutes. Finally, the plates were resuspended in 200 μL of PBS and tested.
Multiplexed cytometric bead array (CBA) assay was performed according to standard techniques to detect presence in the cell culture medium of secreted murine TNFα, IL-6, IFNγ, IL-12, monocyte chemoattractant protein 1 (MCP-1), and IL-10.
A total of 4-11 replicates of BV2 cultures in different conditions were investigated. […]

[3] = Phase 1 multiple dose trial, plasma pharmacokinetics (Part 2); conditions: for Tmax: median
[4] = human plasma, Regimen I: 120 mg TQS-168 SDD QD 7 days, fasted, geometric mean
[5] = human plasma, Regimen J 90 mg SDD fed, Day 1
[6] = human plasma, Regimen J 90 mg SDD fed, Day 7
[7] = human plasma, Regimen J: 90 mg TQS-168 SDD QD 7 days, fed, geometric mean
[8] = human plasma, Regimen K: 300 mg TQS-168 SDD QD 7 days, fed, geometric mean

SMILES: CC(C)(C)c1ccc(-c2nc3ccccc3[nH]2)cc1 [TQS-168, 2-(4-tert-butylphenyl)-1H-benzimidazole]
- induction of PGC-1α protein expression [1]: induces PGC-1α protein expression; also recorded: induction of PGC-1α protein expression
- suppression of TNFα production vs control ([2]; 5 μM): can suppress TNFα production; also recorded: inhibition of TNFα production
- suppression of TNFα production vs control ([2]; 20 μM): can suppress TNFα production; also recorded: inhibition of TNFα production
- reduction of LPS-induced TNFα secretion, dose response ([2]; 1-20 μM): concentration-dependent; also recorded: dose-responsive inhibition
- T1/2 ([3]; Regimen J, 90 mg TQS-168 SDD QD, fed, Day 7, geometric mean): 4.46 h
- T1/2 ([3]; Regimen K, 300 mg TQS-168 SDD QD, fed, Day 7, geometric mean): 5.67 h
- AUC(0-tau) ([3]; human plasma, Regimen I: 120 mg TQS-168 SDD QD 7 days, fasted, Day 1, geometric mean): 438 ng·h/mL
- AUC(0-tau) ([3]; human plasma, Regimen I: 120 mg TQS-168 SDD QD 7 days, fasted, Day 7, geometric mean): 692 ng·h/mL
- accumulation ratio based on AUC(0-tau) [3, 4]: 1.58
- accumulation ratio based on Cmax [3, 4]: 1.59
- maximum individual AUC(0-tau) as share of the AUC(0-24) exposure limit [3, 5]: 10.9%
- maximum individual Cmax as share of the Cmax exposure limit [3, 5]: 21.6%
- maximum individual AUC(0-tau) as share of the AUC(0-24) exposure limit [3, 6]: 19.5%
- maximum individual Cmax as share of the Cmax exposure limit [3, 6]: 30.9%
- AUC(0-tau) ([3]; human plasma, Regimen J: 90 mg TQS-168 SDD QD 7 days, fed, Day 1, geometric mean): 223 ng·h/mL
- AUC(0-tau) ([3]; human plasma, Regimen J: 90 mg TQS-168 SDD QD 7 days, fed, Day 7, geometric mean): 227 ng·h/mL
- accumulation ratio based on AUC(0-tau) [3, 7]: 1.24
- accumulation ratio based on Cmax [3, 7]: 1.03
- AUC(0-tau) ([3]; human plasma, Regimen K: 300 mg TQS-168 SDD QD 7 days, fed, Day 1, geometric mean): 1210 ng·h/mL
- AUC(0-tau) ([3]; human plasma, Regimen K: 300 mg TQS-168 SDD QD 7 days, fed, Day 7, geometric mean): 2010 ng·h/mL
- accumulation ratio based on AUC(0-tau) [3, 8]: 1.66
- accumulation ratio based on Cmax [3, 8]: 1.74
- AUC ([3]; male, human, in vivo, 90 mg, AUC(0-tau), Regimen J, 90 mg TQS-168 SDD QD, fed, Day 1, tau = 24 h, geometric mean): 223 ng·h/mL
- AUC ([3]; male, human, in vivo, 90 mg, AUC(0-tau), Regimen J, 90 mg TQS-168 SDD QD, fed, Day 7, tau = 24 h, geometric mean): 227 ng·h/mL
- AUC ([3]; male, human, in vivo, 90 mg, AUC(0-tau), human plasma, Regimen J: 90 mg TQS-168 SDD QD 7 days, fed, Day 1, geometric mean): 223 ng·h/mL
- AUC ([3]; male, human, in vivo, 90 mg, AUC(0-tau), human plasma, Regimen J: 90 mg TQS-168 SDD QD 7 days, fed, Day 7, geometric mean): 227 ng·h/mL
- Cmax ([3]; male, human, in vivo, 90 mg, Cmax, Regimen J, 90 mg TQS-168 SDD QD, fed, Day 1, plasma, geometric mean): 47.4 ng/mL
- Cmax ([3]; male, human, in vivo, 90 mg, Cmax, Regimen J, 90 mg TQS-168 SDD QD, fed, Day 7, plasma, geometric mean): 48.8 ng/mL
- Cmax ([3]; male, human, in vivo, 90 mg, Cmax, human plasma, Regimen J: 90 mg TQS-168 SDD QD 7 days, fed, Day 1): 190 nM
- Cmax ([3]; male, human, in vivo, 90 mg, Cmax, human plasma, Regimen J: 90 mg TQS-168 SDD QD 7 days, fed, Day 1, geometric mean): 47.4 ng/mL
- Cmax ([3]; male, human, in vivo, 90 mg, Cmax, human plasma, Regimen J: 90 mg TQS-168 SDD QD 7 days, fed, Day 7): 190 nM
- Cmax ([3]; male, human, in vivo, 90 mg, Cmax, human plasma, Regimen J: 90 mg TQS-168 SDD QD 7 days, fed, Day 7, geometric mean): 48.8 ng/mL
- Tmax ([3]; male, human, in vivo, 90 mg, Tmax (median), Regimen J, 90 mg TQS-168 SDD QD, fed, Day 7, plasma): 3 h
- Tmax ([3]; male, human, in vivo, 90 mg, Tmax, human plasma, Regimen J: 90 mg TQS-168 SDD QD 7 days, fed, Day 1): 3 h
- Tmax ([3]; male, human, in vivo, 90 mg, Tmax, human plasma, Regimen J: 90 mg TQS-168 SDD QD 7 days, fed, Day 7): 3 h
- AUC ([3]; male, human, in vivo, 90 mg, maximum individual AUC(0-tau), human plasma, Regimen J 90 mg SDD fed, Day 1): 299 ng·h/mL
- AUC ([3]; male, human, in vivo, 90 mg, maximum individual AUC(0-tau), human plasma, Regimen J 90 mg SDD fed, Day 7): 535 ng·h/mL
- Cmax ([3]; male, human, in vivo, 90 mg, maximum individual Cmax, human plasma, Regimen J 90 mg SDD fed, Day 1): 65.8 ng/mL
- Cmax ([3]; male, human, in vivo, 90 mg, maximum individual Cmax, human plasma, Regimen J 90 mg SDD fed, Day 7): 94.1 ng/mL
- half-life ([3]; male, human, in vivo, 120 mg): 7.7 h
- AUC ([3]; male, human, in vivo, 120 mg, AUC(0-tau), human plasma, Regimen I: 120 mg TQS-168 SDD QD 7 days, fasted, Day 1, geometric mean): 438 ng·h/mL
- AUC ([3]; male, human, in vivo, 120 mg, AUC(0-tau), human plasma, Regimen I: 120 mg TQS-168 SDD QD 7 days, fasted, Day 7, geometric mean): 692 ng·h/mL
- Cmax ([3]; male, human, in vivo, 120 mg, Cmax, human plasma, Regimen I: 120 mg TQS-168 SDD QD 7 days, fasted, Day 1): 690 nM
- Cmax ([3]; male, human, in vivo, 120 mg, Cmax, human plasma, Regimen I: 120 mg TQS-168 SDD QD 7 days, fasted, Day 1, geometric mean): 172 ng/mL
- Cmax ([3]; male, human, in vivo, 120 mg, Cmax, human plasma, Regimen I: 120 mg TQS-168 SDD QD 7 days, fasted, Day 7): 1090 nM
- Cmax ([3]; male, human, in vivo, 120 mg, Cmax, human plasma, Regimen I: 120 mg TQS-168 SDD QD 7 days, fasted, Day 7, geometric mean): 273 ng/mL
- Tmax ([3]; male, human, in vivo, 120 mg, Tmax, human plasma, Regimen I: 120 mg TQS-168 SDD QD 7 days, fasted, Day 1): 1 h
- Tmax ([3]; male, human, in vivo, 120 mg, Tmax, human plasma, Regimen I: 120 mg TQS-168 SDD QD 7 days, fasted, Day 7): 0.75 h
- AUC ([3]; male, human, in vivo, 300 mg, AUC(0-tau), Regimen K, 300 mg TQS-168 SDD QD, fed, Day 1, tau = 24 h, geometric mean): 1210 ng·h/mL
- AUC ([3]; male, human, in vivo, 300 mg, AUC(0-tau), Regimen K, 300 mg TQS-168 SDD QD, fed, Day 7, tau = 24 h, geometric mean): 2010 ng·h/mL
- AUC ([3]; male, human, in vivo, 300 mg, AUC(0-tau), human plasma, Regimen K: 300 mg TQS-168 SDD QD 7 days, fed, Day 1, geometric mean): 1210 ng·h/mL
- AUC ([3]; male, human, in vivo, 300 mg, AUC(0-tau), human plasma, Regimen K: 300 mg TQS-168 SDD QD 7 days, fed, Day 7, geometric mean): 2010 ng·h/mL
- Cmax ([3]; male, human, in vivo, 300 mg, Cmax, Regimen K, 300 mg TQS-168 SDD QD, fed, Day 1, plasma, geometric mean): 229 ng/mL
- Cmax ([3]; male, human, in vivo, 300 mg, Cmax, Regimen K, 300 mg TQS-168 SDD QD, fed, Day 7, plasma, geometric mean): 400 ng/mL
- Cmax ([3]; male, human, in vivo, 300 mg, Cmax, human plasma, Regimen K: 300 mg TQS-168 SDD QD 7 days, fed, Day 1): 910 nM
- Cmax ([3]; male, human, in vivo, 300 mg, Cmax, human plasma, Regimen K: 300 mg TQS-168 SDD QD 7 days, fed, Day 1, geometric mean): 229 ng/mL
- Cmax ([3]; male, human, in vivo, 300 mg, Cmax, human plasma, Regimen K: 300 mg TQS-168 SDD QD 7 days, fed, Day 7): 1600 nM
- Cmax ([3]; male, human, in vivo, 300 mg, Cmax, human plasma, Regimen K: 300 mg TQS-168 SDD QD 7 days, fed, Day 7, geometric mean): 400 ng/mL
- Tmax ([3]; male, human, in vivo, 300 mg, Tmax (median), Regimen K, 300 mg TQS-168 SDD QD, fed, Day 7, plasma): 4 h
- Tmax ([3]; male, human, in vivo, 300 mg, Tmax, human plasma, Regimen K: 300 mg TQS-168 SDD QD 7 days, fed, Day 1): 2 h
- Tmax ([3]; male, human, in vivo, 300 mg, Tmax, human plasma, Regimen K: 300 mg TQS-168 SDD QD 7 days, fed, Day 7): 4 h
- Tmax ([3]; male, human, in vivo, po, 90 mg, Tmax (median), Regimen J, 90 mg TQS-168 SDD powder for oral suspension QD, fed, Day 1, plasma): 3 h
- Tmax ([3]; male, human, in vivo, po, 300 mg, Tmax (median), Regimen K, 300 mg TQS-168 SDD powder for oral suspension QD, fed, Day 1, plasma): 2 h
